# Source: article PMC9944328 (Nature Communications, 2023)
# Several values for one entry are separate records, joined by “and”; a condition that tells them apart may be missing. Equal values may be shown once.
# Molecular target: SSTR2 (Homo sapiens, UniProt P30874)
# Test: SSTRs Gi-mediated cAMP inhibition, GloSensor, HEK293, 5 μM forskolin, 15 min room temperature (SSTR2 wild-type);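 for Bottom (best-fit value): normalized to the maximal wild-type response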;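 for Bottom (best-fit): normalized to the maximal wild-type response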;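 for Span (best-fit value), cAMP inhibition: normalized to the maximal wild-type response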;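 for Span (best-fit value): normalized to the maximal wild-type response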;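 for Span (best-fit): normalized to the maximal wild-type response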;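 for Span: normalized to the maximal wild-type response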;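 for Top (best-fit): normalized to the maximal wild-type response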
# Assay type: cell-based
# Parameters: Best-fit Top, cAMP inhibition / Span, cAMP inhibition / Best-fit Bottom / Best-fit Top / Best-fit Span / Bottom / Span (best-fit value), cAMP inhibition / Top (best-fit value), cAMP inhibition: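 normalized to the maximal wild-type response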
# Settings: for Span / Top: best-fit, runs 1-3
# Description: The levels of the intracellular 3′, 5′-cyclic AMP (cAMP) were measured by the GloSensor cAMP assay (Promega) as described in the previous studies[28],[41] which has been widely used. The human full-length SSTRs and mutants were cloned into the pcDNA3.1+ vector with a HA signal sequence followed by a Flag tag at the N-terminus. HEK293 cells (ATCC, CRL-1573) were seeded into 6-well microplates at a density of 1.0 × 10^6 cells/well and cultured for 24 h at 37 °C with 5% CO2. Cells were then co-transfected with SSTR wild-type or mutants and GloSensor plasmids. After 24 h of transfection, the cells were dissociated with TrypLE™ Express Enzyme (1X) (Thermo Fisher Scientific) and collected by centrifugation at 500 × g for 5 min. Then the collected cells were suspended in Hank’s balanced salt solution [HBSS (Thermo Fisher Scientific)] supplemented with […] (YEASEN), and then the suspension cells were seeded into 96-well plates with 90 μl/well. After incubating at room temperature for 40 min, 5 μM forskolin and ligands diluted in HBSS were added to each well and the plates were incubated at room temperature for 15 min. […] were measured using the Synergy H1 microplate reader (BioTek) and the data presented are means of at least three independent experiments.
# [1] = WT-1 (run 1 of each mutant's batch)
# SSTR2, sequence (P30874 whole entry): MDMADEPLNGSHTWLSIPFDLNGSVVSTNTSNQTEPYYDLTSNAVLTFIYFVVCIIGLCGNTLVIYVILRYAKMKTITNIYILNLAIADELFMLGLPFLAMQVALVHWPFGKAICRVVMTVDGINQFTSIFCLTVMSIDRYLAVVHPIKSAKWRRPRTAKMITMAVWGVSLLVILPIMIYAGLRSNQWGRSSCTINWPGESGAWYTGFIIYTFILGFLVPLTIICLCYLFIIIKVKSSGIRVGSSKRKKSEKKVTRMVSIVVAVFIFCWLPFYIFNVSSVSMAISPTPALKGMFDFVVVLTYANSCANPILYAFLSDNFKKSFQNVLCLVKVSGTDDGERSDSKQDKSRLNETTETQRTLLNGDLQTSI
smiles,measurement,setting,value
N#Cc1cccc(-c2ccc3ncc(-c4cc(F)cc(F)c4)c(N4CCC(N)CC4)c3c2)c1O [paltusotine],EC50,"EC50, Gi signaling, SSTR2 WT, n=6",1.88 ± 3.15 nM
same,EC50,"EC50, WT-1, run paired with D295F",0.307 nM
same,EC50,"EC50, WT-1, run paired with F294Y",0.307 nM
same,EC50,"EC50, WT-1, run paired with I195M",1.09 nM
same,EC50,"EC50, WT-1, run paired with T194H",1.16 nM
same,EC50,"EC50, WT-1, run paired with V103N",2.1 nM
same,EC50,"EC50, WT-1, run paired with Y205R",0.537 nM
same,EC50,"EC50, WT-2, run paired with D295F",0.501 nM
same,EC50,"EC50, WT-2, run paired with F294Y",0.501 nM
same,EC50,"EC50, WT-2, run paired with I195M",2.02 nM
same,EC50,"EC50, WT-2, run paired with T194H",1.6 nM
same,EC50,"EC50, WT-2, run paired with V103N",1.35 nM
same,EC50,"EC50, WT-2, run paired with Y205R",0.536 nM
same,EC50,"EC50, WT-3, run paired with D295F",1.09 nM
same,EC50,"EC50, WT-3, run paired with F294Y",1.16 nM
same,EC50,"EC50, WT-3, run paired with T194H",1.35 nM
same,EC50,"EC50, WT-3, run paired with V103N",1.08 nM
same,EC50,"EC50, WT-3, run paired with Y205R",2.1 nM
same,EC50,"EC50, cAMP inhibition best-fit, D122A set, WT-1",2.35 nM
same,EC50,"EC50, cAMP inhibition best-fit, D122A set, WT-2",2.66 nM
same,EC50,"EC50, cAMP inhibition best-fit, D122A set, WT-3",0.501 nM
same,EC50,"EC50, cAMP inhibition best-fit, F127A set, WT-1",1.55 nM
same,EC50,"EC50, cAMP inhibition best-fit, F127A set, WT-2",1.16 nM
same,EC50,"EC50, cAMP inhibition best-fit, F127A set, WT-3",0.298 nM
same,EC50,"EC50, cAMP inhibition best-fit, I130A set, WT-1",0.295 nM
same,EC50,"EC50, cAMP inhibition best-fit, I130A set, WT-2",0.321 nM
same,EC50,"EC50, cAMP inhibition best-fit, I130A set, WT-3",1.13 nM
same,EC50,"EC50, cAMP inhibition best-fit, Q102A set, WT-2",1.19 nM
same,EC50,"EC50, cAMP inhibition best-fit, Q102A set, WT-3",1 nM
same,EC50,"EC50, cAMP inhibition best-fit, Q126A set, WT-1",0.777 nM
same,EC50,"EC50, cAMP inhibition best-fit, Q126A set, WT-2",1.58 nM
same,EC50,"EC50, cAMP inhibition best-fit, Q126A set, WT-3",0.845 nM
same,EC50,"EC50, cAMP inhibition best-fit, V103A set, WT-1",1.58 nM
same,EC50,"EC50, cAMP inhibition best-fit, V103A set, WT-2",0.605 nM
same,EC50,"EC50, cAMP inhibition best-fit, V103A set, WT-3",1.19 nM
same,EC50,"EC50, subtype selectivity series, Suppl. Tables 4/5, SSTR2-WT, n=6",2.08 ± 1.39 nM
same,Bottom (best-fit value),"F208A panel, WT-1 (run 1)",-1.411
same,LogEC50 (best-fit value),"F208A panel, WT-1 (run 1)",-9.3
same,Span (best-fit value),"F208A panel, WT-1 (run 1)",105.2
same,Top (best-fit value),"F208A panel, WT-1 (run 1)",103.8
same,Bottom (best-fit value),"F208A panel, WT-2 (run 2)",4.431
same,LogEC50 (best-fit value),"F208A panel, WT-2 (run 2)",-8.26
same,Span (best-fit value),"F208A panel, WT-2 (run 2)",92.56
same,Top (best-fit value),"F208A panel, WT-2 (run 2)",96.99
same,Bottom (best-fit value),"F208A panel, WT-3 (run 3)",0.6589
same,LogEC50 (best-fit value),"F208A panel, WT-3 (run 3)",-8.524
same,Span (best-fit value),"F208A panel, WT-3 (run 3)",92.36
same,Top (best-fit value),"F208A panel, WT-3 (run 3)",93.02
same,Bottom (best-fit value),"F265A panel, WT-1 (run 1)",-3.016
same,LogEC50 (best-fit value),"F265A panel, WT-1 (run 1)",-8.949
same,Span (best-fit value),"F265A panel, WT-1 (run 1)",106.8
same,Top (best-fit value),"F265A panel, WT-1 (run 1)",103.7
same,Bottom (best-fit value),"F265A panel, WT-2 (run 2)",-3.466
same,LogEC50 (best-fit value),"F265A panel, WT-2 (run 2)",-9.53
same,Span (best-fit value),"F265A panel, WT-2 (run 2)",116.5
same,Top (best-fit value),"F265A panel, WT-2 (run 2)",113
same,Bottom (best-fit value),"F265A panel, WT-3 (run 3)",-6.932
same,LogEC50 (best-fit value),"F265A panel, WT-3 (run 3)",-9.494
same,Span (best-fit value),"F265A panel, WT-3 (run 3)",126.2
same,Top (best-fit value),"F265A panel, WT-3 (run 3)",119.3
same,Bottom (best-fit value),"F272A panel, WT-1 (run 1)",-5.769
same,Top (best-fit value),"F272A panel, WT-1 (run 1)",108
same,Bottom (best-fit value),"F272A panel, WT-2 (run 2)",-4.038
same,Top (best-fit value),"F272A panel, WT-2 (run 2)",107.8
same,Bottom (best-fit value),"F272A panel, WT-3 (run 3)",-0.5501
same,Top (best-fit value),"F272A panel, WT-3 (run 3)",106.1
same,Fold of WT,"Gi signaling EC50, SSTR2 WT",1
same,Emax,HEK293,100%
same,Bottom (best-fit value),"P220A panel, WT-1 (run 1)",-3.466
same,LogEC50 (best-fit value),"P220A panel, WT-1 (run 1)",-9.53
same,Span (best-fit value),"P220A panel, WT-1 (run 1)",116.5
same,Top (best-fit value),"P220A panel, WT-1 (run 1)",113
same,Bottom (best-fit value),"P220A panel, WT-2 (run 2)",-6.932
same,LogEC50 (best-fit value),"P220A panel, WT-2 (run 2)",-9.494
same,Span (best-fit value),"P220A panel, WT-2 (run 2)",126.2
same,Top (best-fit value),"P220A panel, WT-2 (run 2)",119.3
same,Bottom (best-fit value),"P220A panel, WT-3 (run 3)",-3.016
same,LogEC50 (best-fit value),"P220A panel, WT-3 (run 3)",-8.949
same,Span (best-fit value),"P220A panel, WT-3 (run 3)",106.8
same,Top (best-fit value),"P220A panel, WT-3 (run 3)",103.7
same,Activation potency level,"SSTR2, Fig. 1",nanomolar level
same,Fold of WT,"Suppl. Tables 4/5, SSTR2-WT",1.00
same,Bottom (best-fit value),"W269A panel, WT-1 (run 1)",-3.016
same,LogEC50 (best-fit value),"W269A panel, WT-1 (run 1)",-8.949
same,Span (best-fit value),"W269A panel, WT-1 (run 1)",106.8
same,Top (best-fit value),"W269A panel, WT-1 (run 1)",103.7
same,Bottom (best-fit value),"W269A panel, WT-2 (run 2)",-3.466
same,LogEC50 (best-fit value),"W269A panel, WT-2 (run 2)",-9.53
same,Span (best-fit value),"W269A panel, WT-2 (run 2)",116.5
same,Top (best-fit value),"W269A panel, WT-2 (run 2)",113
same,Bottom (best-fit value),"W269A panel, WT-3 (run 3)",-6.932
same,LogEC50 (best-fit value),"W269A panel, WT-3 (run 3)",-9.494
same,Span (best-fit value),"W269A panel, WT-3 (run 3)",126.2
same,Top (best-fit value),"W269A panel, WT-3 (run 3)",119.3
same,Span,WT (I195A set),93.39 and 87.67 and 121.7
same,Top,WT (I195A set),108 and 99.03 and 119.3
same,LogEC50,"WT (I195A set), run 1, best-fit",-8.654
same,LogEC50,"WT (I195A set), run 2, best-fit",-8.922
same,LogEC50,"WT (I195A set), run 3, best-fit",-8.801
same,Span,WT (I284A set),107.7 and 93.27 and 111.5
same,Top,WT (I284A set),108.3 and 104.9 and 129.6
same,LogEC50,"WT (I284A set), run 1, best-fit",-8.585
same,LogEC50,"WT (I284A set), run 2, best-fit",-8.622
same,LogEC50,"WT (I284A set), run 3, best-fit",-8.252
same,Span,WT (L99A set),106.7 and 113.8 and 111.8
same,Top,WT (L99A set),106.1 and 108 and 107.8
same,LogEC50,"WT (L99A set), run 1, best-fit",-8.998
same,LogEC50,"WT (L99A set), run 2, best-fit",-8.575
same,LogEC50,"WT (L99A set), run 3, best-fit",-8.63
same,Span,WT (T194A set),106.7 and 111.2 and 111
same,Top,WT (T194A set),106.1 and 108.7 and 106.2
same,LogEC50,"WT (T194A set), run 1, best-fit",-8.998
same,LogEC50,"WT (T194A set), run 2, best-fit",-8.908
same,LogEC50,"WT (T194A set), run 3, best-fit",-8.937
same,Span,WT (Y50A set),113.7 and 115.8 and 115.1
same,Top,WT (Y50A set),113.6 and 115.8 and 115.7
same,LogEC50,"WT (Y50A set), run 1, best-fit",-8.071
same,LogEC50,"WT (Y50A set), run 2, best-fit",-8.114
same,LogEC50,"WT (Y50A set), run 3, best-fit",-8.128
same,"Span (best-fit value), cAMP inhibition",[1],113.8 and 111.2 and 111.8 and 104.8 and 106.7
same,"Top (best-fit value), cAMP inhibition",[1],108.7 and 107.8 and 108 and 105.3 and 106.1
same,Bottom (best-fit),"WT-1, run paired with D295F",3.567
same,LogEC50,"WT-1, run paired with D295F",-9.512
same,Span (best-fit),"WT-1, run paired with D295F",103.1
same,Top (best-fit),"WT-1, run paired with D295F",106.7
same,Bottom (best-fit),"WT-1, run paired with F294Y",3.567
same,LogEC50,"WT-1, run paired with F294Y",-9.512
same,Span (best-fit),"WT-1, run paired with F294Y",103.1
same,Top (best-fit),"WT-1, run paired with F294Y",106.7
same,Bottom (best-fit),"WT-1, run paired with I195M",12.84
same,LogEC50,"WT-1, run paired with I195M",-8.964
same,Span (best-fit),"WT-1, run paired with I195M",85.7
same,Top (best-fit),"WT-1, run paired with I195M",98.54
same,Bottom (best-fit),"WT-1, run paired with T194H",-4.818
same,LogEC50,"WT-1, run paired with T194H",-8.937
